Experimental data from patent publication US8785614B2, “Aberrantly methylated genes in pancreatic cancer” (The Johns Hopkins University, priority 2003, dated 2014).

Assays:
[1] = test system: Hs766T pancreatic cancer cell line; assay: Oligonucleotide microarray gene expression after TSA (1 μM, 24 h) vs mock; assay type: cell-based, human
Excerpt: (§1) These include a large panel of novel targets for silencing by histone deacetylation including several known tumor suppressor genes or cell cycle-regulatory genes (ING1, p57KIP2, CHES1, CHFR, GADD45B, and others).

[2] = test system: AsPC1 pancreatic cancer cell line; assay: as above; assay type: cell-based, human
Excerpt: as §1

CC(/C=C/C(=O)NO)=C\[C@@H](C)C(=O)c1ccc(N(C)C)cc1 [TSA, trichostatin A]
Fold-change after TSA treatment ([1]; ADM, Hs766T): 1.86 fold | Fold-change after TSA treatment ([1]; ANGPT1, Hs766T): 6.72 fold | Fold-change after TSA treatment ([1]; AREG, Hs766T): 2.02 fold | Fold-change after TSA treatment ([1]; ATF3, Hs766T): 1.73 fold | Fold-change after TSA treatment ([1]; BIK, Hs766T): 2.35 fold | Fold-change after TSA treatment ([1]; CACNA1G, Hs766T): 2.72 fold | Fold-change after TSA treatment ([1]; CAPN5, Hs766T): 1.06 fold | Fold-change after TSA treatment ([1]; CDH8, Hs766T): −1.11 fold | Fold-change after TSA treatment ([1]; CDKN1C, Hs766T): 6.57 fold | Fold-change after TSA treatment ([1]; CGR11, Hs766T): 1.82 fold | Fold-change after TSA treatment ([1]; CHES1, Hs766T): −1.11 fold | Fold-change after TSA treatment ([1]; CHFR, Hs766T): 8 fold | Fold-change after TSA treatment ([1]; CLDN15, Hs766T): −1.81 fold | Fold-change after TSA treatment ([1]; EDR1, Hs766T): −1.26 fold | Fold-change after TSA treatment ([1]; EGR4, Hs766T): 6.49 fold | Fold-change after TSA treatment ([1]; EREG, Hs766T): 7.43 fold | Fold-change after TSA treatment ([1]; GADD45B, Hs766T): 2.01 fold | Fold-change after TSA treatment ([1]; GAGE1, Hs766T): 14.57 fold | Fold-change after TSA treatment ([1]; GAGE2, Hs766T): 432.64 fold | Fold-change after TSA treatment ([1]; GAGE3, Hs766T): 184.93 fold | Fold-change after TSA treatment ([1]; GAGE4, Hs766T): 234.36 fold | Fold-change after TSA treatment ([1]; GAGE6, Hs766T): 237.45 fold | Fold-change after TSA treatment ([1]; GAGE7B, Hs766T): 331.97 fold | Fold-change after TSA treatment ([1]; H1 historic family, member 2 (BC002649), Hs766T): 5.8 fold | Fold-change after TSA treatment ([1]; HEP27, Hs766T): 1631 fold | Fold-change after TSA treatment ([1]; HMOX1, Hs766T): 2.56 fold | Fold-change after TSA treatment ([1]; HPSE, Hs766T): −1.12 fold | transcripts with marked induction ([1]; Hs766T): 349 transcripts | transcripts with marked induction, share of transcripts analyzed ([1]; Hs766T): 1.9% | Fold-change after TSA treatment ([1]; ID2, Hs766T): 5 fold | Fold-change after TSA treatment ([1]; ING1, Hs766T): 11.83 fold | Fold-change after TSA treatment ([1]; KLK12, Hs766T): 1.54 fold | Fold-change after TSA treatment ([1]; MAGE1, Hs766T): 0.49 fold | Fold-change after TSA treatment ([1]; MBD1, Hs766T): 7.94 fold | Fold-change after TSA treatment ([1]; MMP1, Hs766T): 1.63 fold | Fold-change after TSA treatment ([1]; NGFR, Hs766T): 4.11 fold | Fold-change after TSA treatment ([1]; NOTCH3, Hs766T): 2.06 fold | Fold-change after TSA treatment ([1]; P-glycoprotein (mdr1), Hs766T): 5.74 fold | Fold-change after TSA treatment ([1]; SPANXA1, Hs766T): 15.92 fold | Fold-change after TSA treatment ([1]; STC1, Hs766T): −1.31 fold | Fold-change after TSA treatment ([1]; UCPH, Hs766T): −1.45 fold | Fold-change after TSA treatment ([1]; ULBP2, Hs766T): 3.47 fold | Fold-change after TSA treatment ([1]; WNT4, Hs766T): 0.81 fold | Fold-change after TSA treatment ([1]; candidate tumor suppressor gene 21 protein (AF040708), Hs766T): 5.14 fold | Fold-change after TSA treatment ([1]; connective tissue growth factor (M92934), Hs766T): 43 fold | Fold-change after TSA treatment ([1]; hemoglobin, alpha 1 (HBAI), Hs766T): 1.55 fold | Fold-change after TSA treatment ([1]; interleukin 8, Hs766T): −1.42 fold | Fold-change after TSA treatment ([1]; period homolog 1 (PERI), Hs766T): 9.7 fold | Fold-change after TSA treatment ([1]; prostate differentiation factor (AF003934), Hs766T): 3.17 fold | Fold-change after TSA treatment ([1]; protease inhibitor 12 (neuroserpin) (SERPINU), Hs766T): 1.95 fold | Fold-change after TSA treatment ([1]; synovial sarcoma, X breakpoint 1 (BC001003), Hs766T): 38.74 fold | Fold-change after TSA treatment ([1]; tissue factor pathway inhibitor-2 (L27624), Hs766T): 120.09 fold | Fold-change after TSA treatment ([2]; ADM, AsPC1): 7.6 fold | Fold-change after TSA treatment ([2]; ANGPT1, AsPC1): −1.77 fold | Fold-change after TSA treatment ([2]; AREG, AsPC1): 18.35 fold | Fold-change after TSA treatment ([2]; ATF3, AsPC1): 8.73 fold | transcripts with marked induction ([2]; AsPC1): 424 transcripts | transcripts with marked induction, share of transcripts analyzed ([2]; AsPC1): 2.3% | Fold-change after TSA treatment ([2]; BIK, AsPC1): 1.65 fold | Fold-change after TSA treatment ([2]; CACNA1G, AsPC1): 9.95 fold | Fold-change after TSA treatment ([2]; CAPN5, AsPC1): 1.73 fold | Fold-change after TSA treatment ([2]; CDH8, AsPC1): 1.11 fold | Fold-change after TSA treatment ([2]; CDKN1C, AsPC1): 10.62 fold | Fold-change after TSA treatment ([2]; CGR11, AsPC1): −1.39 fold | Fold-change after TSA treatment ([2]; CHES1, AsPC1): 1.87 fold | Fold-change after TSA treatment ([2]; CHFR, AsPC1): −1.1 fold | Fold-change after TSA treatment ([2]; CLDN15, AsPC1): −4.26 fold | Fold-change after TSA treatment ([2]; EDR1, AsPC1): 4.56 fold | Fold-change after TSA treatment ([2]; EGR4, AsPC1): 37.6 fold | Fold-change after TSA treatment ([2]; EREG, AsPC1): 1.91 fold | Fold-change after TSA treatment ([2]; GADD45B, AsPC1): 2.65 fold | Fold-change after TSA treatment ([2]; GAGE1, AsPC1): 0.66 fold | Fold-change after TSA treatment ([2]; GAGE2, AsPC1): −2.5 fold | Fold-change after TSA treatment ([2]; GAGE3, AsPC1): −5.88 fold | Fold-change after TSA treatment ([2]; GAGE4, AsPC1): −1.67 fold | Fold-change after TSA treatment ([2]; GAGE6, AsPC1): −1.16 fold | Fold-change after TSA treatment ([2]; GAGE7B, AsPC1): −4.88 fold | Fold-change after TSA treatment ([2]; H1 historic family, member 2 (BC002649), AsPC1): 6.64 fold | Fold-change after TSA treatment ([2]; HEP27, AsPC1): 413.37 fold | Fold-change after TSA treatment ([2]; HMOX1, AsPC1): 1.73 fold | Fold-change after TSA treatment ([2]; HPSE, AsPC1): 2.18 fold | Fold-change after TSA treatment ([2]; ID2, AsPC1): 10.26 fold | Fold-change after TSA treatment ([2]; ING1, AsPC1): 13.22 fold | Fold-change after TSA treatment ([2]; KLK12, AsPC1): 7.63 fold | Fold-change after TSA treatment ([2]; MAGE1, AsPC1): 1.05 fold | Fold-change after TSA treatment ([2]; MBD1, AsPC1): 2.66 fold | Fold-change after TSA treatment ([2]; MMP1, AsPC1): 9.05 fold | Fold-change after TSA treatment ([2]; NGFR, AsPC1): 0.76 fold | Fold-change after TSA treatment ([2]; NOTCH3, AsPC1): 7.93 fold | Fold-change after TSA treatment ([2]; P-glycoprotein (mdr1), AsPC1): 1.08 fold | Fold-change after TSA treatment ([2]; SPANXA1, AsPC1): −0.78 fold | Fold-change after TSA treatment ([2]; STC1, AsPC1): 15.9 fold | Fold-change after TSA treatment ([2]; UCPH, AsPC1): 5.48 fold | Fold-change after TSA treatment ([2]; ULBP2, AsPC1): 73.47 fold | Fold-change after TSA treatment ([2]; WNT4, AsPC1): 5.72 fold | Fold-change after TSA treatment ([2]; candidate tumor suppressor gene 21 protein (AF040708), AsPC1): −1.47 fold | Fold-change after TSA treatment ([2]; connective tissue growth factor (M92934), AsPC1): 17.38 fold | Fold-change after TSA treatment ([2]; hemoglobin, alpha 1 (HBAI), AsPC1): 20.5 fold | Fold-change after TSA treatment ([2]; interleukin 8, AsPC1): 44.67 fold | Fold-change after TSA treatment ([2]; period homolog 1 (PERI), AsPC1): 20.29 fold | Fold-change after TSA treatment ([2]; prostate differentiation factor (AF003934), AsPC1): 4.45 fold | Fold-change after TSA treatment ([2]; protease inhibitor 12 (neuroserpin) (SERPINU), AsPC1): 8 fold | Fold-change after TSA treatment ([2]; synovial sarcoma, X breakpoint 1 (BC001003), AsPC1): 1.74 fold | Fold-change after TSA treatment ([2]; tissue factor pathway inhibitor-2 (L27624), AsPC1): 0.4 fold
